In patent publication US20090099231A1, “3-Sulfonylamino-Pyrrolidine-2-One Derivatives as Factor Xa Inhibitors” (priority 2005, published 2009):
Counter-ions that a name gives are not always drawn.

Tests used:
human plasma = experiment: Measurement of Prothrombin Time (PT), time to clot formation in plasma; conditions: pooled plasma from 4 donors, test compound 0.03 to 100 uM, Thromboplastin C Plus
Description: Blood was collected into a sodium citrate solution (ratio 9:1) to give a final concentration of 0.38% citrate. Plasma was generated by centrifugation of citrated blood samples at 1200×g for 20 min at 4° C. and stored at −20° C. until use.
The PT test was performed using the BCS Coagulation Analyzer (Dade Behring). For assay, 50 ul of plasma containing test compound at concentrations ranging from 0.03 to 100 uM (made from a 100 uM stock containing 1% DMSO in plasma) was combined with 100 ul of Thromboplastin C Plus (Dade Behring). Upon addition of the reagents, absorbance at 405 nm was monitored and time to clot formation is determined (normal range for human plasma is 10.6-12.4 seconds).

human Factor Xa = human Factor Xa (Homo sapiens, UniProt P00742); experiment: In vitro assay for inhibition of Factor Xa (fluorogenic assay, Rhodamine 110 bis-Cbz-glycylglycyl-L-arginine amide substrate); type: biochemical; conditions: for Factor Xa inhibitory activity: human Factor Xa 0.0003 U.ml-1, substrate 10 μM, 15 min preincubation, room temperature, pH 7.4; for Ki: Ki=IC50/(1+[Substrate]/Km), i.e. IC50 divided by 1.6, human Factor Xa fluorogenic assay
Description: Compounds of the present invention were tested for their Factor Xa inhibitory activity as determined in vitro by their ability to inhibit human Factor Xa in a fluorogenic assay, using Rhodamine 110, bis-Cbz-glycylglycyl-L-arginine amide as the fluorogenic substrate. Compounds were diluted from a 10 mM stock solution in dimethylsulfoxide at appropriate concentrations. Assay was performed at room temperature using buffer consisting of: 50 mM Tris-HCl, 150 mM NaCl, 5 mM CaCl2, pH 7.4 containing human Factor Xa (final concentration of 0.0003 U.ml-1). Compound and enzyme were preincubated for 15 min prior to addition of the substrate (final concentration of 10 μM). The reaction was stopped after 3 hrs with the addition of H-D-Phe-Pro-Arg-Chloromethylketone. An LJL-Analyst fluorimeter was used to monitor fluorescence with 485 nm excitation/535 nm emission. To obtain IC50 values the data were analysed using ActivityBase® and XLfit®.
Ki=IC50/(1+[Substrate]/Km)
The Ki value for the above assay can be obtained by dividing the IC50 value by 1.6.

human Factor Xa, sequence (P00742 235-488 limits assumed): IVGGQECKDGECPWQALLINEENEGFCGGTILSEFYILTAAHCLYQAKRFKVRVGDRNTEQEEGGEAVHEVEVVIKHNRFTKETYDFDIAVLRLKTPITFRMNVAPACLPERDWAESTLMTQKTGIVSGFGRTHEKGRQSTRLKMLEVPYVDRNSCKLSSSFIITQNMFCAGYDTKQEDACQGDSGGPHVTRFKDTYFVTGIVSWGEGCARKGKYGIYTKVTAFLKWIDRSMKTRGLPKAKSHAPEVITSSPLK
human Factor Xa, sequence (P00742 41-179 partner limits assumed): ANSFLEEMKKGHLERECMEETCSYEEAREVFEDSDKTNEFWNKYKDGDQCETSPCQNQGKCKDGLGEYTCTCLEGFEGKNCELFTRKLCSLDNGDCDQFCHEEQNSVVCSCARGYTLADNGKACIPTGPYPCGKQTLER

SMILES | Factor Xa inhibitory activity (human Factor Xa) | Ki (human Factor Xa) [µM] | activity in prothrombin time (PT) test (human plasma)
Cl.O=C1[C@@H](NS(=O)(=O)/C=C/c2ccc(Cl)s2)CCN1c1cc2c(cc1F)CNCC2 [Example 22, (E)-2-(5-Chloro-2-thienyl)-N-[(3S)-1-(7-fluoro-1,2,3,4-tetrahydro-6-isoquinolinyl)-2-oxo-3-pyrrolidinyl]ethenesulfonamide hydrochloride] | exhibit Factor Xa inhibitory activity |  | exhibit activity
Cl.O=C1[C@@H](NS(=O)(=O)/C=C/c2ccc(Cl)s2)CCN1c1cc2c(cc1Cl)CNCC2 [Example 25, (E)-N-[(3S)-1-(7-Chloro-1,2,3,4-tetrahydro-6-isoquinolinyl)-2-oxo-3-pyrrolidinyl]-2-(5-chloro-2-thienyl)ethenesulfonamide hydrochloride] | exhibit Factor Xa inhibitory activity |  | exhibit activity
CC(C)N1CCc2cc(N3CC[C@H](NS(=O)(=O)c4ccc5cc(Cl)ccc5c4)C3=O)ccc2C1 [Example 30, 6-Chloro-N-{(3S)-1-[2-(1-methylethyl)-1,2,3,4-tetrahydro-6-isoquinolinyl]-2-oxo-3-pyrrolidinyl}-2-naphthalenesulfonamide] | exhibit Factor Xa inhibitory activity | < 0.01 | exhibit activity
CC1NCCc2cc(N3CC[C@H](NS(=O)(=O)c4ccc5cc(Cl)ccc5c4)C3=O)ccc21 (stereo partly drawn) [Example 31, 6-Chloro-N-[(3S)-1-(1-methyl-1,2,3,4-tetrahydro-6-isoquinolinyl)-2-oxo-3-pyrrolidinyl]-2-naphthalenesulfonamide hydrochloride] | exhibit Factor Xa inhibitory activity | < 0.01 | exhibit activity
CC1NCCc2cc(N3CC[C@H](NS(=O)(=O)/C=C/c4ccc(Cl)s4)C3=O)ccc21 (stereo partly drawn) [Example 32, (E)-2-(5-Chloro-2-thienyl)-N-[(3S)-1-(1-methyl-1,2,3,4-tetrahydro-6-isoquinolinyl)-2-oxo-3-pyrrolidinyl]ethenesulfonamide hydrochloride] | exhibit Factor Xa inhibitory activity | < 0.01 | exhibit activity
CC1Cc2cc(N3CC[C@H](NS(=O)(=O)/C=C/c4ccc(Cl)s4)C3=O)ccc2CN1 (stereo partly drawn) [Example 33, (E)-2-(5-Chloro-2-thienyl)-N-[(3S)-1-(3-methyl-1,2,3,4-tetrahydro-6-isoquinolinyl)-2-oxo-3-pyrrolidinyl]ethenesulfonamide hydrochloride] | exhibit Factor Xa inhibitory activity | < 0.01 | exhibit activity
CN1CCc2cc(N3CC[C@H](NS(=O)(=O)/C=C/c4ccc(Cl)cc4)C3=O)ccc2C1.O=CO [Example 37, (E)-2-(4-Chlorophenyl)-N-[(3S)-1-(2-methyl-1,2,3,4-tetrahydro-6-isoquinolinyl)-2-oxo-3-pyrrolidinyl]ethenesulfonamide formate] | exhibit Factor Xa inhibitory activity |  | exhibit activity
CC1Cc2cc(N3CC[C@H](NS(=O)(=O)c4ccc5cc(Cl)ccc5c4)C3=O)ccc2CN1.O=CO (stereo partly drawn) [Example 38, 6-Chloro-N-[(3S)-1-(3-methyl-1,2,3,4-tetrahydro-6-isoquinolinyl)-2-oxo-3-pyrrolidinyl]-2-naphthalenesulfonamide formate] | exhibit Factor Xa inhibitory activity |  | exhibit activity

The next lines start with results.

Factor Xa inhibitory activity (human Factor Xa) | Ki (human Factor Xa) [µM] | SMILES | activity in prothrombin time (PT) test (human plasma)
exhibit Factor Xa inhibitory activity |  | Cl.O=C1[C@@H](NS(=O)(=O)c2ccc3c(Cl)c[nH]c3c2)CCN1c1cc2c(cc1F)CNCC2 [Example 23, 3-Chloro-N-[(3S)-1-(7-fluoro-1,2,3,4-tetrahydro-6-isoquinolinyl)-2-oxo-3-pyrrolidinyl]-1H-indole-6-sulfonamide hydrochloride] | exhibit activity
exhibit Factor Xa inhibitory activity |  | Cl.O=C1[C@@H](NS(=O)(=O)c2ccc3cc(Cl)ccc3c2)CCN1c1cc2c(cc1Cl)CNCC2 [Example 24, 6-Chloro-N-[(3S)-1-(7-chloro-1,2,3,4-tetrahydro-6-isoquinolinyl)-2-oxo-3-pyrrolidinyl]-2-naphthalenesulfonamide hydrochloride] | exhibit activity
exhibit Factor Xa inhibitory activity | < 0.01 | Cl.O=C1[C@@H](NS(=O)(=O)c2ccc3c(Cl)c[nH]c3c2)CCN1c1cc2c(cc1Cl)CNCC2 [Example 26, 3-Chloro-N-[(3S)-1-(7-chloro-1,2,3,4-tetrahydro-6-isoquinolinyl)-2-oxo-3-pyrrolidinyl]-1H-indole-6-sulfonamide hydrochloride] | exhibit activity
exhibit Factor Xa inhibitory activity |  | Cc1cc2c(cc1N1CC[C@H](NS(=O)(=O)c3ccc4cc(Cl)ccc4c3)C1=O)CCNC2.Cl [Example 27, 6-Chloro-N-[(3S)-1-(7-methyl-1,2,3,4-tetrahydro-6-isoquinolinyl)-2-oxo-3-pyrrolidinyl]-2-naphthalenesulfonamide hydrochloride] | exhibit activity
exhibit Factor Xa inhibitory activity |  | Cc1cc2c(cc1N1CC[C@H](NS(=O)(=O)/C=C/c3ccc(Cl)s3)C1=O)CCNC2.Cl [Example 28, (E)-2-(5-Chloro-2-thienyl)-N-[(3S)-1-(7-methyl-1,2,3,4-tetrahydro-6-isoquinolinyl)-2-oxo-3-pyrrolidinyl]ethenesulfonamide hydrochloride] | exhibit activity
exhibit Factor Xa inhibitory activity |  | Cc1cc2c(cc1N1CC[C@H](NS(=O)(=O)c3ccc4c(Cl)c[nH]c4c3)C1=O)CCNC2.Cl [Example 29, 3-Chloro-N-[(3S)-1-(7-methyl-1,2,3,4-tetrahydro-6-isoquinolinyl)-2-oxo-3-pyrrolidinyl]-1H-indole-6-sulfonamide hydrochloride] | exhibit activity
exhibit Factor Xa inhibitory activity | < 0.01 | O=C1[C@@H](NS(=O)(=O)c2cc3cc(Cl)ccc3[nH]2)CCN1c1ccc2c(c1)CCNC2.O=CO [Example 36, 5-Chloro-N-[(3S)-2-oxo-1-(1,2,3,4-tetrahydro-6-isoquinolinyl)-3-pyrrolidinyl]-1H-indole-2-sulfonamide] | exhibit activity
